Article PMC11403280, “Subclass IId bacteriocins targeting mannose phosphotransferase system—Structural diversity and implications for receptor interaction and antimicrobial activity” (PNAS Nexus, 2024)
Read-outs that look alike come from different tables or passages of the source. Ends that are not written are not given here.

Key:
[1] = system: Spontaneous Man-PTS mutants of L. lactis IL1403; experiment: 2-fold serial dilutions sensitivity assay, Table S3; assay type: cell-based, Lactococcus lactis
From the text: (§1) To identify the individual amino acid residues of Man-PTS required for the sensitivity to the newly defined bacteriocins, and thus probably involved in their interaction with the receptor, spontaneous mutants of L. lactis IL1403 and L. garvieae IBB3403 with resistance to individual bacteriocins and preserved Man-PTS functionality were selected. Out of the nine new bacteriocins, five (GarAG3, RhmB, LcnC, EntG1, and MurA) were potent enough to produce resistant mutants in their presence. In total, 34 resistant L. lactis IL1403 mutants were obtained, including three selected in the presence of RhmB, 15 in the presence of EntG1, 2—LcnC, and 14—MurA; 38 resistant L. garvieae IBB3403 mutants were obtained in the presence of GarAG3 (Table S1). They were 4- to over 1,024-fold less sensitive to the bacteriocin used for the selection than the parental strain and carried, respectively, a combined total of 11 and 10 independent mutations in the ptnCD genes of L. lactis IL1403 and the manCD genes of L. garvieae IBB3403. Ten mutations in L. lactis led to amino acid substitutions in IIC (Gly62Val, Ala110Thr, Met120Ile, and Ala187Val) or IID (Gly126Ser, Ala127Thr, Ser214Leu, Gly221Cys, Tyr223Cys, and Gly229Val), and one led to the deletion of eight amino acids (221-228GlyAlaTyrLeuGluPheProLys) in IID.
(§2) The activity of peptides of interest against indicator strains and L. garvieae IBB3403- or L. lactis IL1403-derived strains was determined using the spot-on-lawn assay as described previously ([7]). Spontaneous bacteriocin-resistant mutants were selected by growing L. garvieae IBB3403 or L. lactis IL1403 in the presence of a bacteriocin in CDM ([43]) supplemented with 1% mannose (Man-CDM) as described previously ([7]). GarAG3-resistant L. garvieae IBB3403 mutants (LG1—LG32, LG34–LG38, and LG40) were selected at the bacteriocin concentration of 0.024 µg/mL. L. lactis IL1403 mutants resistant to EntG1 (LLG1–LLG3, LLG7–LLG9, LLG11, LLG12, LLG14, LLG19, LLG21, LLG25, LLG32, LLG46, and LLG50), RhmB (LLB2, LLB3, and LLB17), MurA (LLA1, LLA7, LLA8, LLA12, LLA19–LLA22, LLA24, and LLA26–LLA30), and LcnC (LLC1, LLC2) were selected at bacteriocin concentrations of 12.5µg/mL, 1.56µg/mL, 1.56 µg/mL, and 4 ng/mL, respectively. The sensitivity of the mutants was determined using 2-fold serial dilutions assay as described previously ([7]).
Table S3. Spontaneous mutants of L. lactis IL1403 resistant to RhmB, EntG1, LcnC, MurA, GarQ, BacSJ, ubericin K, and GarC
(§3) Sensitivity to Position in the cell
(§4) Mutant strain Mutation Amino acid change [fold-decreased relative to WT] membrane of affected
RhmB EntG1 LcnC MurA GarQ BacSJ Ubericin GarC Man-PTS amino acid(s)
mutations GlyAlaTyrLeuGluPheProLys
“>” substitution; “del”deletion

[2] = system: Spontaneous Man-PTS mutants of L. garvieae IBB3403; experiment: 2-fold serial dilutions sensitivity assay, Table S4; assay type: cell-based, Lactococcus garvieae
From the text: as §1, §2
Table S4. Spontaneous mutants of L. garvieae IBB3403 resistant to GarAG3, GarA, GarB, GarC, GarQ, MurA, and ubericin K
as §3, §4
GarAG3 GarA GarB GarC GarQ MurA Ubericin Man-PTS amino acid(s)
LG9 manD: 800G>T ManD: Gly267Val 16x 0x 8x 2x 4x 0.5x 4x extracellular (region γ+)
TTGTTGGTAACG 262_265delAsnValValGly
GTAACGGTGTTG 265_268delGlyAsnGlyVal
LGA10 manD: 173C>A ManD: Ala58Asp 8x 2x 4x 4x 2x 2x 8x transmembrane (HP2a)
5 μl of each bacteriocin at a concentration of 1 mg/ml was used; “>” substitution; “del”deletion; “ins” insertion

[3] = system: Vero, HepG2, and Caco-2 cell lines; details: ref [36], [37], cited from earlier work
From the text: The use of bacteriocins as antibacterial agents offers a promising solution to some of the most challenging public health problems today, such as the emergence of difficult-to-treat infections caused by antibiotic-resistant pathogens ([29]) or the breakouts of foodborne diseases ([30]). Here, we have identified nine new bacteriocins of which five (MurA, MsnC, RhmB, AglA, and LcbC) could have potential in the treatment of infections caused by vancomycin-resistant Enterococcus faecium and Enterococcus faecalis strains ([31]), and four (MurA, MsnC, RhmB, and AglA) in the prevention of L. monocyto ...

[4] = biological target: Man-PTS membrane complex IICIID of L. garvieae (ManCD) (L. garvieae (endogenous in L. garvieae IBB3403))

EYHLMNGANGYLTRVNGKYVYRVTKDPVSAVFGVISNGWGSAGAGFGPQH [GarQ]
Sensitivity to [fold-decreased relative to WT] ([1]; LLA1 etc. (MurA-resistant), PtnC: Ala110Thr): 4 x | Sensitivity to [fold-decreased relative to WT] ([1]; LLB2,LLB3, PtnD: Gly126Ser): 0 x | Sensitivity to [fold-decreased relative to WT] ([1]; LLB17, PtnD: Ser214Leu): 256 x | Sensitivity to [fold-decreased relative to WT] ([1]; LLC1, LLC2, PtnC: Gly62Val): 64 x | Sensitivity to [fold-decreased relative to WT] ([1]; LLG1, LLG2, PtnD: 221-228del): 16 x | Sensitivity to [fold-decreased relative to WT] ([1]; LLG3, LLG9, LLG11, LLG32, LLG46, PtnD: Gly229Val): 16 x | Sensitivity to [fold-decreased relative to WT] ([1]; LLG7, LLG19, LLG21, PtnD: Ala127Thr): 8 x | Sensitivity to [fold-decreased relative to WT] ([1]; LLG8, PtnD: Gly221Cys): 16 x | Sensitivity to [fold-decreased relative to WT] ([1]; LLG12, LLG14, PtnC: Ala187Val): 8 x | Sensitivity to [fold-decreased relative to WT] ([1]; LLG25, PtnD: Tyr223Cys): 16 x | Sensitivity to [fold-decreased relative to WT] ([1]; LLG50, PtnC: Met120Ile): 4 x | Sensitivity to [fold-decreased relative to WT] ([1]; LLN1, PtnD: Pro123His): > 1024 x | Sensitivity to [fold-decreased relative to WT] ([1]; M6, PtnD: Arg200His): 8 x | Sensitivity to [fold-decreased relative to WT] ([1]; M16, PtnD: Leu83Phe): 0 x | Sensitivity to [fold-decreased relative to WT] ([1]; M19, PtnD: Phe226Ser): 8 x | Sensitivity to [fold-decreased relative to WT] ([1]; M30, PtnD: Leu197Phe): 16 x | Sensitivity to [fold-decreased relative to WT] ([2]; LG1 etc., ManD: Arg203Leu): 0 x | Sensitivity to [fold-decreased relative to WT] ([2]; LG2, ManC: Gly60Cys): 32 x | Sensitivity to [fold-decreased relative to WT] ([2]; LG6, ManD: Trp256Leu): 16 x | Sensitivity to [fold-decreased relative to WT] ([2]; LG9, ManD: Gly267Val): 4 x | Sensitivity to [fold-decreased relative to WT] ([2]; LG11, 13, 22, 28, ManD: Arg203Cys): 2 x | Sensitivity to [fold-decreased relative to WT] ([2]; LG12, ManD: 262_265delAsnValValGly): 4 x | Sensitivity to [fold-decreased relative to WT] ([2]; LG18, ManD: 265_268delGlyAsnGlyVal): 4 x | Sensitivity to [fold-decreased relative to WT] ([2]; LG23, 29, ManC: Gly188Val): 4 x | Sensitivity to [fold-decreased relative to WT] ([2]; LG32, ManD: Ser318Leu): 2 x | Sensitivity to [fold-decreased relative to WT] ([2]; LG36, ManC: Gly60Val): 128 x | Sensitivity to [fold-decreased relative to WT] ([2]; LGA2, ManC: Leu59Pro): 128 x | Sensitivity to [fold-decreased relative to WT] ([2]; LGA3, ManC: Gly52Val): 4 x | Sensitivity to [fold-decreased relative to WT] ([2]; LGA6, ManC:190_191insVal): 4 x | Sensitivity to [fold-decreased relative to WT] ([2]; LGA10, ManD: Ala58Asp): 2 x | Sensitivity to [fold-decreased relative to WT] ([2]; LGB6, ManD: Gln313Lys): 2 x | Sensitivity to [fold-decreased relative to WT] ([2]; LGC1, ManD: Met34Ile): 0 x | Sensitivity to [fold-decreased relative to WT] ([2]; LGC8, ManD: Tyr226Asp): 16 x | Sensitivity to [fold-decreased relative to WT] ([2]; LGC13, ManC: Ala106Val): 4 x | Sensitivity to [fold-decreased relative to WT] ([2]; LGC15, ManD: Ala133Val, Val315Met): 4 x | Sensitivity to [fold-decreased relative to WT] ([2]; LGN1, ManD: Gly301Val): > 1024 x | Sensitivity to [fold-decreased relative to WT] ([2]; LGN2, ManD: Ala133Val): 16 x | Sensitivity to [fold-decreased relative to WT] ([2]; LGN9, ManC: Ala102Val): 16 x | Sensitivity to [fold-decreased relative to WT] ([2]; PW202, ManC: Pro100His): > 1024 x | Sensitivity to [fold-decreased relative to WT] ([2]; PW203, ManD: Thr123Ile): > 1024 x | Sensitivity to [fold-decreased relative to WT] ([2]; PW204, ManD: Pro111Ser): > 1024 x | Cytotoxicity ([3]; highly purified, concentrations up to 1 mg/mL): no cytotoxicity

GarQ_(Asn9Gly) (peptide)
minimum inhibitory concentration against L. garvieae IBB3403, fold decrease in activity relative to native GarQ [4]: > 512 fold

GarQ_(Tyr11Leu) (peptide)
minimum inhibitory concentration against L. garvieae IBB3403, fold decrease in activity relative to native GarQ [4]: > 512 fold

PedPA-1: subclass IIa pediocin-like bacteriocin (KYYGNGVTCGKHSCSVDWGKATTCIINNGAMAWATGGHQGNHKC; ends and bridges not checked; cysteine pairing not given here; UniProt P29430 19-62, looked up)
Cytotoxicity ([3]; up to 400 μg/mL): no cytotoxicity
